Laboratory results published in US4539208A, “Combination of thienamycin-type antibiotics with dipeptidase inhibitors” (Merck & Co., Inc., priority 1981, dated 1985).

Assays:
in vivo = test: in vivo; set-up: species or system dog (male beagle); conditions: dog, iv, 5 mg/kg
Protocol: A male beagle was used for a study of the effect of dipeptidase inhibitors on the urinary recovery of N-formimidoyl thienamycin. In a control study, the dog was given 5 mg/kg IV of the N-formimidoyl thienamycin without inhibitor. A second experiment used the same amount of N-formimidoylthienamycin, but also administered Z-2-isovaleramido-2-butenoic acid in 3 doses, each providing 20 mg/kg of the compound. The first dose was administered just after injection of the N-formimidoylthienamycin, the second at 40 min. and the third at 60 min. […]

Staphalococcus aureus = test: Systemic efficacy of thienamycin with co-administered inhibitor, Staphylococcus aureus infection in mouse; format: in vivo
[1] = Urinary recovery of thienamycin co-administered with dipeptidase inhibitor in the mouse; format: in vivo, mouse (Charles River CD, female); conditions: urine, iv, Table II, control, thienamycin 10 mg/kg alone
Protocol: In addition to this in vitro screen procedure, an in vivo screen was followed to measure the test compound's ability to inhibit metabolism as reflected by increase in urinary recovery of thienamycin from the mouse. The procedure involves co-administration of the test compound by the intravenous or subcutaneous route at a dose-rate of 10-100 mg/kg, with 10 mg/kg thienamycin. Thienamycin recovery in the urine over a 4 hour period is then compared with its recovery in a control group to which test compound was not co-administered.
Urinary recovery of thienamycin was measured in all cases with the use of a cylinder or disc diffusion assay, conducted in a manner described in U.S. Pat. No. 3,950,357. This bioassay, with Staphylococcus aureus ATCC 6538 as the test organism, has a useful response range from 0.04 μg/ml to 3.0 μg/ml.
An in vivo assay on the mouse was conducted as follows: 20 g Charles River CD, female mice were injected subcutaneously with the chosen dose of the chemical inhibitor. About two minutes later, the dose of thienamycin was given intravenously. A control of thienamycin above was also conducted. The level of thienamycin in the urine as a % of dose was measured using a bioassay technique. The two test compound numbers are those from Table I. Compound 7 is Z-2-isovaleramido-2-butenoicacid; compound 10 is Z-2-cyclopropylcarboxamido-2-butenoic acid. […]

Compound | dose excreted at 3 h (in vivo) | ED50 (Staphalococcus aureus; THM +100 mg/kg inhibitor (Z-2-isovaleramido-2-butenoic acid)) | ED50 (Staphalococcus aureus; THM alone) | dose excreted at 4 h [1]
C[C@@H](O)[C@H]1C(=O)N2C(C(=O)O)=C(SCCN=CN)C[C@H]12 [N-formimidoyl thienamycin, N-Formimidoyl thienamycin] | 7.8% | – | – | –
C[C@@H](O)[C@H]1C(=O)N2C(C(=O)O)=C(SCCN)C[C@H]12 [Thienamycin] | – | 0.06 mg/kg | 0.2 mg/kg | 25 to 30%
